Here are results for 3 molecules from patent US6036958A, “Tsetse thrombin inhibitor” (Yale University, priority 1999, dated 2000).

No end group written: not given here.

Assay [1] has as its system ADP induced platelet aggregation. Put plainly: Platelet aggregation assay, ADP induced. The class given is cell-based, human. Conditions: purified TTI. How it is done: (§1) Platelet Aggregation Assay. Blood from a healthy human volunteer was collected by venipuncture, anticoagulated with 1/10 volume of 0.08 M trisodium citrate, and centrifuged at 150 g for 10 min. The platelet rich plasma (PRP) was withdrawn and acidified to pH 6.4 using 0.15 M citric acid^15. The PRP was then centrifuged at 370 g for 20 min and the supernatant discarded. The platelet pellet was resuspended in Tyrodes solution (pH 7.4) with 3.13% wt/vol trisodium citrate and counted in a Coulter counter (Coulter Electronics, Hialeah, Fla.). The concentration of platelets was adjusted to 3×10^4 /μl prior to use.

Assay [2] relates to thrombin induced platelet aggregation. Description: Platelet aggregation assay, thrombin induced. In kind it is cell-based. Conditions: washed human platelets; TTI 0, 0.001, 0.5, 1.0 nM; thrombin 0.2 NIH U/ml. On the procedure: as §1
To determine the effect of TTI on thrombin induced aggregation, 200 μl of washed platelets were warmed to 37° C. in a Born multi-channel aggregometer in the presence of increasing concentrations of purified TTI. Aggregation was then recorded following the addition of 20 μl of thrombin (Boehringer-Mannheim, Indianapolis, Ind.) at a final concentration of 0.2 NIH U/ml. The aggregometer was calibrated to 100% light transmission, ie 0% aggregation, using Tyrodes solution.

Assay [3] relates to collagen induced platelet aggregation. Put plainly: Platelet aggregation assay, collagen induced. In kind it is cell-based, human. The following applies: purified TTI. How it is done: as §1
The target in assay [4] is thrombin (Homo sapiens, UniProt P00734). Description: Single stage chromogenic assay of thrombin inhibition (S-2238). The class given is biochemical. Conditions: purified protein. On the procedure: Thrombin Assays. A single stage chromogenic assay of thrombin inhibition was used to monitor SGE activity. 100 μl of thrombin, diluted to a concentration of 1 nM in 10 mM HEPES, pH 7.5 containing 0.1% bovine serum albumin and 150 mM NaCl (HBSA), was incubated with 50 µl of SGE, column fractions (diluted 1:1000 in HBSA), or purified TTI for 15 min at 25° C. in a 96 well microtiter plate. Following the addition of […], the initial rate (mOD/min) of substrate hydrolysis over 5 min was measured at 405 nm using a Vmax kinetic microplate reader (Molecular Devices, Palo Alto, Calif.). Results were expressed as percent inhibition of thrombin activity using the following formula:
Percent inhibition=1--(inhibited rate/uninhibited rate)×100

In assay [5] the test system is restenosis following angioplasty. The following applies: rabbits; cited from earlier work.

“TTI: low molecular weight polypeptide (about 3530 Da) purified from Glossina morsitans morsitans salivary glands; residues 19 to 50 of SEQ ID NO: 2 (GEPGAPIDYDEYGDSSEEVGGTPLHEIPGIRL)”: in assay [1], the “effect on ADP induced aggregation” value is recorded as “no effect”. Further, in assay [2], the “inhibition of platelet aggregation in response to thrombin” value is “dose dependent inhibition of platelet aggregation”. Also, the “effect on collagen induced aggregation” value in assay [3] is “no effect”. The “inhibitory activity against thrombin” value in assay [4] was “potent, tight-binding inhibitor of thrombin”.

For “tick anticoagulant peptide: from Ornithodoros moubata, potent and specific inhibitor of factor Xa (YNRLCIKPRDWIDECDSNEGGERAYFRNGKGGCDSFWICPEDHTGADYYSSYRDCFNACI; ends and bridges not checked; cysteine pairing not given here; UniProt P17726 1-60, looked up) [reference compound]”, in assay [5], the “reducing restenosis following angioplasty, compared with heparin” value was “superior to heparin”.

B1: recombinant antistasin: from the leech Haementaria officinalis, potent and specific inhibitor of factor Xa (protein, UniProt P15358 18-136, looked up)
Antistasin: QGPFGPGCEEAGCPEGSACNIITDRCTCSGVRCRMHCPHGFQRSRYGCEFCKCRLEPMKATCDISECPEGMMCSRLTNKCDCKIDINCRKTCPNGLKRDKLGCEYCECRPKRKLIPRLS
As to B1, the “reducing restenosis following angioplasty, compared with heparin” value in assay [5] is given as “superior to heparin”.
